Reference: US9873904B2, “Detection of acid-producing bacteria” (3M INNOVATIVE PROPERTIES COMPANY, priority 2009, dated 2018)
Where a name gives a salt, the structure may show the parent alone. Read-outs that look alike come from different tables or passages of the source.

Columns and labels:
Leuconostoc = assay type: cell-based, Leuconostoc mesenteroides; conditions: 30 C
Description: (§1) DIFCO MRS broth was obtained from BD-Diagnostic Systems (Sparks, Md.).
(§2) Four strains of lactic acid-producing bacteria were isolated from processed meats. Two of the cultures were identified as Leuconostoc mesenteroides and Weissella viridescens, Lactococcus lactis subspecies lactis and Streptococcus oralis.
(§3) Bromcresol purple (BCP) pH indicators was obtained from Eastman Kodak (Rochester, N.Y.). Chlorophenol red (CPR) (CAS NO. 4430-20-0) was obtained from Sigma-Aldrich (St. Louis, Mo.). The pH indicators were individually added to MRS broth to obtainfinal concentrations of BCP or CPR of 0.5 mM. After dissolving the pH indicator, the solutions were filter-sterilized.
(§4) Bacterial cultures were prepared by inoculating pure cultures into tryptic soy broth or MRS broth. The inoculated broth was incubated overnight at 25° C. The overnight cultures were diluted in the MRS broth (containing bromcresol purple) to obtain a suspension of approximately 10-100 colony-forming units (CFU) per milliliter. […] Inoculated plates were incubated at temperatures at 25°, 30° and 32° C., respectively. The plates were visually inspected for signs of bacterial growth.
(§5) A concentrated solution of sterile chlorophenol red was added to the MRS diluent as described in Example 2. A concentrated solution of sterile dipotassium phosphate (pH 7.0+/−0.2) was added to the MRS diluent to provide an additional 28 mM phosphate buffer in the diluent. Lactic acid bacterial cultures were prepared and diluted into the MRS/chlorophenol red solution as described in Example 1 with the exception that S. oralis was not tested in this experiment. […] The plates were incubated at 30° C. and the plates were visually inspected for signs of bacterial growth.
as §5, with “provide and” for “provide an”

[1] = system: L. lactis subspecies lactis; assay type: cell-based, Lactococcus lactis subspecies lactis; conditions: 30 C
Description: as §1, §2, §3, §4, §5
as §5, with “provide and” for “provide an”

S. oralis = assay type: cell-based, Streptococcus oralis; conditions: Example 1; indicator 0.02 g/l or 0.04 g/l; buffer addition None; 25 C, 30 C; 40-72 hr
Description: as §1, §2, §3, §4
A concentrated solution of sterile chlorophenol red was added to the MRS diluent as described in Example 2. […]

Weissella = assay type: cell-based, Weissella viridescens; conditions: 30 C
Description: as §1, §2, §3, §4, §5
as §5, with “provide and” for “provide an”

L. mesenteroides = assay: Colony appearance on thin film culture devices containing pH indicators (MRS/Letheen diluent); assay type: cell-based, Leuconostoc mesenteroides; conditions: indicator 0.5 mM
Description: (§6) The aliquot were separately filter-sterilized.

[2] = system: L. lactis subspecies lactis; assay: as above; assay type: cell-based, Lactococcus lactis subspecies lactis; conditions: indicator 0.5 mM
Description: as §6

Lactobacillus brevis [3] = assay: Detection of lactic acid bacteria with Nystatin on Plate I; assay type: cell-based; conditions: 500 U/mL Nystatin, 28 degrees Celsius, 48-144 hr, 99.9% CO2
Protocol: (§7) Overnight cultures of Lactobacillus brevis, Pediococcus damnosus and 5 strains of Saccharomyces cerevisiae were grown in MRS broth (bacteria cultures) or yeast peptone dextrose (YPD) broth (yeast cultures). These cultures were serially diluted, yielding suspensions that contained approximately 100 cfu/mL of the organisms. A second series of suspensions were prepared and 500 U/mL Nystatin (CAS No. 1400-61-9 from Sigma) were added to the suspensions. A stock solution was prepared by adding Nystatin solids to 100% ethanol to make a solution of 25,000 U/mL which was then added to the bacteria/yeast suspensions to obtain the desired Nystatin concentration. One milliliter of each of the different solutions was then inoculated onto Plate I. The inoculated plates were incubated at 28 degrees Celsius for 48-144 hr in a 99.9% CO2 incubator.

Pediococcus damnosus = assay: as above; assay type: cell-based; conditions: 500 U/mL Nystatin, 28 degrees Celsius, 48-144 hr, 99.9% CO2
Protocol: as §7

Saccharomyces cerevisiae [4] = assay: as above; assay type: cell-based; conditions: 500 U/mL Nystatin, 28 degrees Celsius, 48-144 hr, 99.9% CO2
Protocol: as §7

Lactobacillus brevis [5] = assay: Colony growth with cycloheximide on Plate I; assay type: cell-based; conditions: with cycloheximide 100 ppm, 28° C., 48 hr, 99.9% carbon dioxide
Protocol: (§8) Overnight cultures of Lactobacillus brevis in MRS broth and Saccharomyces cerevisiae in yeast peptone dextrose (YPD) broth were prepared as described in Example 7. The cultures were serially diluted to obtain suspensions, each containing approximately 100 cfu/ml of the individual species (either L. brevis or S. cerevisiae). A third suspension was prepared containing 100 cfu/mL total of both species. A second set of 3 suspensions was prepared in the same manner (only L. brevis, only S. cerevisiae, and both organisms) except that each final solution also contained 100 ppm (10 mg/mL) cycloheximide ((CAS No. 66-81-9), sold under the tradename Actidione and obtained from Sigma (Fluka). The cycloheximide was added by using a stock solution of cycloheximide prepared by dissolving 100 ppm of cycloheximide to Butterfield's Buffer and sterile filtering the solution through a 0.2 μm filter. The stock solution was added to the diluent buffer.
(§9) One milliliter of each of the bacterial suspensions was used to inoculate Plate I. The plates were incubated at 28° C. for 48 hr in an incubator having an environment of 99.9% carbon dioxide. Growth indicates the presence of colonies.

Saccharomyces cerevisiae [6] = assay: Colony growth with cycloheximide on Plate I; assay type: cell-based
Protocol: as §8, with “A second set of 3 suspensions was prepared in the same manner (only L. brevis, only S. cerevisiae, and both organisms) except that each final solution also contained 100 ppm (10 mg/mL) cycloheximide ((CAS No. 66-81-9), sold under the tradename Actidione and obtained from Sigma (Fluka).” left out
as §9

[7] = system: Lactobacillus brevis and Saccharomyces; assay: Colony growth with cycloheximide on Plate I; assay type: cell-based, Lactobacillus brevis and Saccharomyces cerevisiae
Protocol: as §8, with “A second set of 3 suspensions was prepared in the same manner (only L. brevis, only S. cerevisiae, and both organisms) except that each final solution also contained 100 ppm (10 mg/mL) cycloheximide ((CAS No. 66-81-9), sold under the tradename Actidione and obtained from Sigma (Fluka).” left out
as §9

[8] = Example 1, indicator 0.02 g/l or 0.04 g/l, buffer addition None, 25 C, 40-72 hr
[9] = Example 1, indicator 0.02 g/l or 0.04 g/l, buffer addition None, 25 C, 18-24 hr
[10] = Example 2, indicator 0.21 g/l, buffer addition None, 18-24 hr
[11] = Example 2, indicator 0.21 g/l, buffer addition None, 40-72 hr
[12] = Example 3, indicator 0.21 g/l, buffer addition 28 mM, 18-24 hr
[13] = Example 3, indicator 0.21 g/l, buffer addition 28 mM, 40-72 hr
[14] = with cycloheximide 100 ppm, 28° C., 48 hr, 99.9% carbon dioxide

For `Cc1cc(C2(c3cc(C)c(O)c(Br)c3)OS(=O)(=O)c3ccccc32)cc(Br)c1O` [Bromcresol Purple, Bromcresol purple], the Observations (Leuconostoc; [8]) was “Leuconostoc: Acid zones. No visible colonies or gas bubbles”, the Observations [1, 9] was “L. lactis subspecies lactis: Colonies with acid zones. No gas bubbles” and the Observations [1, 8] was “L. lactis subspecies lactis: Colonies with acid zones. No gas bubbles”. The Observations (S. oralis) was “S. oralis: Acid zones. No visible colonies or gas bubbles”, the Observations (Weissella; [9]) was “Weissella: Acid zones without visible colonies. No gas bubbles” and the Observations (Weissella; [8]) was “Weissella: Acid zones and gas bubbles. Pale colonies”.
For `Cc1c(C2(c3cc(Br)c(O)c(Br)c3C)OS(=O)(=O)c3ccccc32)cc(Br)c(O)c1Br` [Bromocresol Green, Bromocresol Green sodium salt], the “24-hour Results” value (L. mesenteroides; 25° C.) was “Colonies, yellow zones”, the “24-hour Results” value (L. mesenteroides; 32° C.) was “Colonies, yellow zones” and the “24-hour Results” value ([2]; 32° C.) was “Pale yellow zones”.
For `O=C1C(Br)=CC(=C(c2cc(Br)c(O)c(Br)c2)c2ccccc2S(=O)(=O)[O-])C=C1Br.[Na+]` [Bromphenol Blue, Bromphenol Blue sodium salt], the “48-hour Results” value (L. mesenteroides; 32° C.) was “Pale colonies, gas bubbles”, the “72-hour Results” value (L. mesenteroides; 32° C.) was “Pale colonies, gas bubbles” and the “48-hour Results” value ([2]; 25° C.) was “Pale colonies”. The “72-hour Results” value ([2]; 25° C.) was “Colonies, gas”, the “48-hour Results” value ([2]; 32° C.) was “pale colonies” and the “72-hour Results” value ([2]; 32° C.) was “Colonies, gas”.
In the case of `O=S1(=O)OC(c2ccc(O)c(Cl)c2)(c2ccc(O)c(Cl)c2)c2ccccc21` [Chlorophenol Red, Chlorophenol red], the Observations (Leuconostoc; [10]) was “Acid zones were visible for all three microorganisms tested”, the Observations (Leuconostoc; [11]) was “Leuconostoc: Acid zones and gas bubbles. No visible colonies” and the Observations (Leuconostoc; [12]) was “Acid zones visible with all three strains”. The Observations (Leuconostoc; [13]) was “Leuconostoc: Acid zones. No visible colonies”, the “24-hour Results” value (L. mesenteroides; 32° C.) was “Yellow zones” and the “48-hour Results” value (L. mesenteroides; 32° C.) was “Yellow zones, gas”. For the same molecule, the “24-hour Results” value ([2]; 32° C.) was “Colonies; yellow zones”, the “48-hour Results” value ([2]; 32° C.) was “Colonies; yellow zones” and the Observations [1, 10] was “Acid zones were visible for all three microorganisms tested”. For the same molecule, the Observations [1, 11] was “L. lactis subspecies lactis: Colonies with acid zones and gas bubbles”, the Observations [1, 12] was “Acid zones visible with all three strains” and the Observations [1, 13] was “L. lactis subspecies lactis: Colonies with acid zones and gas bubbles”. The Observations (Weissella; [10]) was “Acid zones were visible for all three microorganisms tested”, the Observations (Weissella; [11]) was “Weissella: Colonies with acid zones and gas bubbles” and the Observations (Weissella; [12]) was “Acid zones visible with all three strains”. The Observations (Weissella; [13]) was “Weissella: Colonies with acid zones and gas bubbles”.
In the case of `C[C@@H]1[C@H](O)[C@@H](C)/C=C/C=C/CC/C=C/C=C/C=C/C=C/C(O[C@H]2O[C@H](C)[C@@H](O)[C@H](N)[C@@H]2O)CC2O[C@](O)(CC(O)C(O)CCC(O)CC(O)CC(O)CC(=O)O[C@H]1C)CC(O)C2C(=O)O` (stereo partly drawn) [Nystatin], the colony growth (Lactobacillus brevis [3]) was “grew whether Nystatin was present or not”, the colony growth (Pediococcus damnosus) was “grew whether Nystatin was present or not” and the colony growth (Saccharomyces cerevisiae [4]) was “grew only on the plates that did not contain Nystatin”.
With `C[C@@H]1C[C@@H]([C@H](O)CC2CC(=O)NC(=O)C2)C(=O)[C@@H](C)C1` [cycloheximide] the “Observation (colony growth)” value (Lactobacillus brevis [5]) was “Growth - 1 distinct colony morphology”, the growth (Saccharomyces cerevisiae [6]; cycloheximide 5, 10, 40 and 100 ppm, only S. cerevisiae) was “no growth” and the “Observation (colony growth)” value (Saccharomyces cerevisiae [6]; [14]) was “No growth”. For the same molecule, the colony morphology ([7]; cycloheximide 5, 10, 40 and 100 ppm) was “one distinct colony morphology” and the “Observation (colony growth)” value [7, 14] was “Growth - 1 distinct colony morphology”.
